Read-outs that look alike come from different tables or passages of the source.
Tests used:
Aphis gossypii [1] = experiment: Aphis gossypii test (leaf dip, cotton); type: in vivo; settings: 500 ppm active compound, cotton leaves dipped
Procedure: (§1) [table] To produce a suitable preparation of active compound, 1 part by weight of active compound is mixed with the stated amounts of solvent and emulsifier, and the concentrate is diluted with emulsifier-containing water to the desired concentration. Cotton leaves (Gossypium hirsutum) which are heavily infested by the cotton aphids (Aphis gossypii) are treated by being dipped into the preparation of active compound of the desired concentration. After the desired period of time, the kill in % is determined. 100% means that all aphids have been killed; 0% means that none of the aphids have been killed.

Aphis gossypii [2] = experiment: Test for persistency: Aphis gossypii (root-systemic action); type: in vivo; settings: 4 ppm in soil, cotton
Procedure: (§2) [table] To produce a suitable preparation of active compound, 1 part by weight of active compound is mixed with the stated amounts of solvent and emulsifier, and the concentrate is diluted with water to the desired concentration. The preparation of active compound is mixed intimately with the soil. The stated concentration refers to the amount of active compound per volume unit of soil (mg/l). The treated soil is filled into pots, and into these pots is planted cotton at the cotyledon stage. In this way, the active compound can be taken up from the soil into the roots of the plants and be transported into the leaves. After the stated number of days, cotton aphids (Aphis gossypii) are, in infection chambers, placed on the leaves. After the desired period of time, the kill in % is determined. 100% means that all aphids have been killed; 0% means that none of the aphids have been killed.

Myzus persicae [3] = experiment: Test for persistency: Myzus persicae (root-systemic action); type: in vivo; settings: 4 ppm in soil, broad beans
Procedure: as §2, with “pre-germinated broad beans.” for “cotton at the cotyledon stage.”, “peach” for “cotton”, “(Myzus persicae)” for “(Aphis gossypii)”

Tetranychus urticae = experiment: Tetranychus test (OP-resistant/dip treatment); type: in vivo; settings: 100 ppm active compound, bean plants dipped, OP-resistant
Procedure: [table] To produce a suitable preparation of active compound, 1 part by weight of active compound is mixed with the stated amounts of solvent and emulsifier, and the concentrate is diluted with emulsifier-containing water to the desired concentration. Bean plants (Phaseolus vulgaris) which are heavily infested by all stages of the greenhouse […] spider mite (Tetranychus urticae) are dipped into a preparation of active compound of the desired concentration. After the desired period of time, the activity in % is determined. 100% means that all spider mites have been killed; 0% means that none of the spider mites have been killed.

Meloidogyne incognita = experiment: Meloidogyne test (gall formation on lettuce roots); type: in vivo; settings: 20 ppm active compound, nematicidal action by gall formation
Procedure: [table] To produce a suitable preparation of active compound, 1 part by weight of active compound is mixed with the stated amounts of solvent and emulsifier, and the concentrate is diluted with water to the desired concentration. Vessels are filled with sand, solution of active compound, Meloidogyne incognita egg/larvae suspension and lettuce seeds. The lettuce seeds germinate and the plants develop. On the roots, galls develop. After the desired period of time, the nematicidal action is determined in % by the formation of galls. 100% means that no galls have been found; 0% means that the number of galls on the treated plants corresponds to that of the untreated control.

Myzus persicae [4] = experiment: Myzus test (leaf dip, cabbage); type: in vivo; settings: 500 ppm active compound, cabbage leaves dipped
Procedure: as §1, with “Cabbage” for “Cotton”, “(Brassica oleracea)” for “(Gossypium hirsutum)”, “peach” for “the cotton”, “(Myzus persicae)” for “(Aphis gossypii)”

Alopecurus [5] = experiment: Pre-emergence test, Alopecurus; type: in vivo; settings: pre-emergence/greenhouse; 250 g of ai/ha; after three weeks
Procedure: (§3) [table] To produce a suitable preparation of active compound, 1 part by weight of active compound is mixed with the stated amount of solvent, the stated amount of emulsifier is added and the concentrate is diluted with water to the desired concentration. Seeds of the test plants are sown in normal soil. After about 24 hours, the soil is sprayed with the preparation of active compound such that the particular amounts of active compound desired are applied per unit area. The concentration of the spray liquor is chosen such that the particular amounts of active compound desired are applied in 1000 l of water/ha. After three weeks, the degree of damage to the plants is rated in % damage in comparison to the development of the untreated control. The figures denote: • 0%=no effect (like untreated control) • 100%=total destruction

Avena fatua [6] = experiment: Pre-emergence test, Avena fatua; type: in vivo; settings: pre-emergence/greenhouse; 250 g of ai/ha; after three weeks
Procedure: as §3

Echinochloa [7] = experiment: Pre-emergence test, Echinochloa; type: in vivo; settings: pre-emergence/greenhouse; 250 g of ai/ha; after three weeks
Procedure: as §3

Setaria [8] = experiment: Pre-emergence test, Setaria; type: in vivo; settings: pre-emergence/greenhouse; 250 g of ai/ha; after three weeks
Procedure: as §3

Amaranthus [9] = experiment: Pre-emergence test, Amaranthus; type: in vivo; settings: pre-emergence/greenhouse; 250 g of ai/ha; after three weeks
Procedure: as §3

Sinapis [10] = experiment: Pre-emergence test, Sinapis; type: in vivo; settings: pre-emergence/greenhouse; 250 g of ai/ha; after three weeks
Procedure: as §3

Alopecurus [11] = experiment: Post-emergence test, Alopecurus; type: in vivo; settings: post-emergence/greenhouse; 250 g of ai/ha; after three weeks
Procedure: as §3, with “Test plants” for “Seeds”, “a height of 5-15 cm” for “the test plants”, “are” for “are sown in normal soil. After about 24 hours, the soil is”, “(=like” for “(like”

Avena fatua [12] = experiment: Post-emergence test, Avena fatua; type: in vivo; settings: post-emergence/greenhouse; 250 g of ai/ha; after three weeks
Procedure: as §3, with “Test plants” for “Seeds”, “a height of 5-15 cm” for “the test plants”, “are” for “are sown in normal soil. After about 24 hours, the soil is”, “(=like” for “(like”

Echinochloa [13] = experiment: Post-emergence test, Echinochloa; type: in vivo; settings: post-emergence/greenhouse; 250 g of ai/ha; after three weeks
Procedure: as §3, with “Test plants” for “Seeds”, “a height of 5-15 cm” for “the test plants”, “are” for “are sown in normal soil. After about 24 hours, the soil is”, “(=like” for “(like”

Setaria [14] = experiment: Post-emergence test, Setaria; type: in vivo; settings: post-emergence/greenhouse; 250 g of ai/ha; after three weeks
Procedure: as §3, with “Test plants” for “Seeds”, “a height of 5-15 cm” for “the test plants”, “are” for “are sown in normal soil. After about 24 hours, the soil is”, “(=like” for “(like”

Amaranthus [15] = experiment: Post-emergence test, Amaranthus; type: in vivo; settings: post-emergence/greenhouse; 250 g of ai/ha; after three weeks
Procedure: as §3, with “Test plants” for “Seeds”, “a height of 5-15 cm” for “the test plants”, “are” for “are sown in normal soil. After about 24 hours, the soil is”, “(=like” for “(like”

Sinapis [16] = experiment: Post-emergence test, Sinapis; type: in vivo; settings: post-emergence/greenhouse; 250 g of ai/ha; after three weeks
Procedure: as §3, with “Test plants” for “Seeds”, “a height of 5-15 cm” for “the test plants”, “are” for “are sown in normal soil. After about 24 hours, the soil is”, “(=like” for “(like”

log P determination = type: physicochemical
Sugar beet = experiment: Pre-emergence test, Sugar beet; type: in vivo; settings: pre-emergence/greenhouse; 250 g of ai/ha; after three weeks; crop
Procedure: as §3

SMILES: Cc1cc(Cl)cc(Cl)c1C1(Cl)C(=O)NC2(CCOC(C)C2)C1=O (stereo not shown) [Ex. I-1-c-1]
- Kill rate in % after 6d (Aphis gossypii [1]): 90%
- Kill rate in % after 7d (Aphis gossypii [2]; infection after 7 d): 99%
- Kill rate in % after 7d (Aphis gossypii [2]; infection after 21 d): 99^ %
- Kill rate in % after 7d (Aphis gossypii [2]; infection after 35 d): 98^ %
- Kill rate in % after 7d (Myzus persicae [3]; infection after 7 d): 100%
- Kill rate in % after 7d (Myzus persicae [3]; infection after 21 d): 100%
- Kill rate in % after 7d (Myzus persicae [3]; infection after 35 d): 100%

SMILES: COc1cc(C(F)(F)F)cc(Cl)c1C1(Cl)C(=O)NC2(CCC(OC)CC2)C1=O (stereo not shown) [Ex. I-1-a-5]
- Kill rate in % after 7d (Tetranychus urticae): 95%

SMILES: COC1CCC2(CC1)NC(=O)C(Cl)(c1c(Cl)cc(Cl)cc1Cl)C2=O (stereo not shown) [Ex. I-1-a-42]
- Kill rate in % after 14d (Meloidogyne incognita): 90%
- Kill rate in % after 6d (Myzus persicae [4]): 95%

SMILES: CCOC1CCC2(CC1)NC(=O)C(Cl)(c1c(C)cc(C)cc1C)C2=O (stereo not shown) [Ex. I-1-a-4]
- % damage, Alopecurus (Alopecurus [5]): 100%
- % damage, Avena fatua (Avena fatua [6]): 90%
- % damage, Echinochloa (Echinochloa [7]): 100%
- % damage, Setaria (Setaria [8]): 100%
- % damage, Amaranthus (Amaranthus [9]): 100%
- % damage, Sinapis (Sinapis [10]): 95%
- % damage, Alopecurus (Alopecurus [11]): 95%
- % damage, Avena fatua (Avena fatua [12]): 95%
- % damage, Echinochloa (Echinochloa [13]): 100%
- % damage, Setaria (Setaria [14]): 100%
- % damage, Amaranthus (Amaranthus [15]): 90%
- % damage, Sinapis (Sinapis [16]): 95%

SMILES: COC1CCC2(CC1)OC(=O)C(c1cc(C)c(C)cc1C)([N+](=O)[O-])C2=O (stereo not shown) [I-2-a-2]
- log P (log P determination; isomer mixture, two values): 4.42
- logP (2.3) (log P determination; pH 2.3): 4.42
- logP (log P determination; pH 2.3, isomer mixture, two values, read-out: log P): 4.17
- logP (log P determination; pH 2.3, pH 2.3, read-out: logP (2.3)): 4.17

SMILES: COC1CCC2(CC1)NC(=O)C(Cl)(c1ccc(OC(F)(F)F)cc1C)C2=O (stereo not shown) [Ex. I-1-a-22]
- Kill rate in % after 7d (Tetranychus urticae): 100%

SMILES: Cc1cc(Br)cc(C)c1C1(Cl)C(=O)NC2(CCCOC2)C1=O (stereo not shown) [Ex. I-1-b-1]
- Kill rate in % after 7d (Tetranychus urticae): 95%

SMILES: COC1CCC2(CC1)NC(=O)C(Cl)(c1cc(C)ccc1C)C2=O (stereo not shown) [Ex. I-1-a-2]
- Kill rate in % after 6d (Aphis gossypii [1]): 95%
- Kill rate in % after 14d (Meloidogyne incognita): 90%
- Kill rate in % after 7d (Tetranychus urticae): 98%

SMILES: CCc1cc(Cl)c(C2(Cl)C(=O)NC3(CCCOC3)C2=O)c(Br)c1 (stereo not shown) [Ex. I-1-b-5]
- Kill rate in % after 7d (Tetranychus urticae): 90%

SMILES: CCc1cc(Cl)cc(Cl)c1C1(Cl)C(=O)NC2(CCC(OC)CC2)C1=O (stereo not shown) [Ex. I-1-a-46]
- Kill rate in % after 6d (Myzus persicae [4]): 98%
- % damage, Alopecurus (Alopecurus [5]): 95%
- % damage, Avena fatua (Avena fatua [6]): 100%
- % damage, Echinochloa (Echinochloa [7]): 100%
- % damage, Setaria (Setaria [8]): 100%
- % damage, Sugar beet (Sugar beet): 0%
- % damage, Alopecurus (Alopecurus [11]): 100%
- % damage, Avena fatua (Avena fatua [12]): 100%
- % damage, Echinochloa (Echinochloa [13]): 100%
- % damage, Setaria (Setaria [14]): 100%
- % damage, Sinapis (Sinapis [16]): 70%

Source: patent US8063096B2, “Spirocyclic 3-phenyl-3substituted-4-ketolactams and-lactones” (Bayer Cropscience AG, priority 2001, dated 2011)
